target: human APJ receptor (Homo sapiens (Human), UniProt P35414); experiment: [35S]GTPγS binding assay on membranes from CHO cells stably expressing human APJ receptor; type: biochemical; conditions: read-out: Activity hAPJ SPA EC50 IP
Summary of the method: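 Agonist-driven [35S]GTPγS (0.2 nM) binding was measured over 90 min at room temperature on human APJ-expressing CHO membranes with bead capture, in buffer containing 3 μM GDP, 200 mM NaCl and 5 mM MgCl2 (pH 7.5). Excess unlabelled GTPγS (100 μM) gave nonspecific signal; EC50 from non-linear fits.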

Chain of human APJ receptor (P35414 whole entry): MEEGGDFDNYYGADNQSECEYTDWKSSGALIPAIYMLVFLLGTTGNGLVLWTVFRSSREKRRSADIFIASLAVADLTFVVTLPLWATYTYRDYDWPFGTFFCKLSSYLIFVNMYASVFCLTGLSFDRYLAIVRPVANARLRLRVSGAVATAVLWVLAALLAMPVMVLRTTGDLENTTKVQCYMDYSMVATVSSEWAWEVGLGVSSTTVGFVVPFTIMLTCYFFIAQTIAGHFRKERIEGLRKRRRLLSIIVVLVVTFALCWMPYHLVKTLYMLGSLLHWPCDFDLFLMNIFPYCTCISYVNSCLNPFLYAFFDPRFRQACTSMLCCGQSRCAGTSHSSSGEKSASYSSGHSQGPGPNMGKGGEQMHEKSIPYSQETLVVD

Compound	EC50
COc1cccc(OC)c1-n1c(NS(=O)(=O)[C@@H](C)[C@H](C)c2ncc(F)cn2)nnc1[C@H]1CCC(C)(C)O1 (single isomer, unassigned) [Example 333.0, (2S,3R)-N-(4-(2,6-dimethoxyphenyl)-5-((R)-5,5-dimethyltetrahydrofuran-2-yl)-4H-1,2,4-triazol-3-yl)-3-(5-fluoropyrimidin-2-yl)butane-2-sulfonamide or (2S,3R)-N-(4-(2,6-dimethoxyphenyl)-5-((S)-5,5-dimethyltetrahydrofuran-2-yl)-4H-1,2,4-triazol-3-yl)-3-(5-fluoropyrimidin-2-yl)butane-2-sulfonamide]	190 nM
(2R,3S)-N-(4-(2,6-dimethoxyphenyl)-5-((S)-tetrahydrofuran-2-yl)-4H-1,2,4-triazol-3-yl)-3-(5-methylpyrimidin-2-yl)butane-2-sulfonamide or (2R,3S)-N-(4-(2,6-dimethoxyphenyl)-5-((R)-tetrahydrofuran-2-yl)-4H-1,2,4-triazol-3-yl)-3-(5-methylpyrimidin-2-yl)butane-2-sulfonamide [Example 220.0]	510 nM
COc1cccc(OC)c1-n1c(NS(=O)(=O)CCc2ccc(F)cc2C#N)nnc1[C@H]1CCC(=O)N1 [Example 43.0, 2-(2-Cyano-4-fluorophenyl)-N-(4-(2,6-dimethoxyphenyl)-5-((2R)-5-oxo-2-pyrrolidinyl)-4H-1,2,4-triazol-3-yl)ethanesulfonamide]	1190 nM
(1R,2S)-1-(5-chloropyrimidin-2-yl)-1-methoxy-N-(4-(1-methylcyclopropyl)-5-((2S,5S)-5-methyltetrahydrofuran-2-yl)-4H-1,2,4-triazol-3-yl)propane-2-sulfonamide or (1R,2S)-1-(5-chloropyrimidin-2-yl)-1-methoxy-N-(4-(1-methylcyclopropyl)-5-((2R,5R)-5-methyltetrahydrofuran-2-yl)-4H-1,2,4-triazol-3-yl)propane-2-sulfonamide [Example 200.0]	290 nM
COc1ncnc(OC)c1-n1c(NS(=O)(=O)[C@@H](C)[C@H](C)c2cnc(C)cn2)nnc1[C@H]1CCCO1 (single isomer, unassigned) [Example 104.0, (2S,3R)-N-(4-(4,6-dimethoxypyrimidin-5-yl)-5-((S)-tetrahydrofuran-2-yl)-4H-1,2,4-triazol-3-yl)-3-(5-methylpyrazin-2-yl)butane-2-sulfonamide or (2S,3R)-N-(4-(4,6-dimethoxypyrimidin-5-yl)-5-((R)-tetrahydrofuran-2-yl)-4H-1,2,4-triazol-3-yl)-3-(5-methylpyrazin-2-yl)butane-2-sulfonamide]	330 nM
(1R,2S)-N-(4-(2,6-dimethoxyphenyl)-5-((R)-1,4-dioxan-2-yl)-4H-1,2,4-triazol-3-yl)-1-ethoxy-1-(5-methylpyrimidin-2-yl)propane-2-sulfonamide or (1R,2S)-N-(4-(2,6-dimethoxyphenyl)-5-((S)-1,4-dioxan-2-yl)-4H-1,2,4-triazol-3-yl)-1-ethoxy-1-(5-methylpyrimidin-2-yl)propane-2-sulfonamide [Example 203.0]	33 nM
(1R,2S)-1-(5-chloropyrimidin-2-yl)-N-(4-(4,6-dimethoxypyrimidin-5-yl)-5-((R)-5,5-dimethyltetrahydrofuran-3-yl)-4H-1,2,4-triazol-3-yl)-1-methoxypropane-2-sulfonamide or (1R,2S)-1-(5-chloropyrimidin-2-yl)-N-(4-(4,6-dimethoxypyrimidin-5-yl)-5-((S)-5,5-dimethyltetrahydrofuran-3-yl)-4H-1,2,4-triazol-3-yl)-1-methoxypropane-2-sulfonamide [Example 315.0]	85 nM
COc1ncnc(OC)c1-n1c(NS(=O)(=O)[C@@H](C)[C@@H](OC(C)C)c2ncc(Cl)cn2)nnc1[C@H]1CCOC1 (single isomer, unassigned) [Example 291.0, (1S,2S)-1-(5-chloropyrimidin-2-yl)-N-(4-(4,6-dimethoxypyrimidin-5-yl)-5-((R)-tetrahydrofuran-3-yl)-4H-1,2,4-triazol-3-yl)-1-isopropoxypropane-2-sulfonamide or (1S,2S)-1-(5-chloropyrimidin-2-yl)-N-(4-(4,6-dimethoxypyrimidin-5-yl)-5-((S)-tetrahydrofuran-3-yl)-4H-1,2,4-triazol-3-yl)-1-isopropoxypropane-2-sulfonamide]	5.2 nM
COc1cccc(OC)c1-n1c(NS(=O)(=O)[C@@H](C)[C@H](C)c2ncc(Cl)cn2)nnc1[C@H]1CCCCO1 (single isomer, unassigned) [Example 88.0, (2S,3R)-3-(5-chloropyrimidin-2-yl)-N-(4-(2,6-dimethoxyphenyl)-5-((S)-tetrahydro-2H-pyran-2-yl)-4H-1,2,4-triazol-3-yl)butane-2-sulfonamide or (2S,3R)-3-(5-chloropyrimidin-2-yl)-N-(4-(2,6-dimethoxyphenyl)-5-((S)-tetrahydro-2H-pyran-2-yl)-4H-1,2,4-triazol-3-yl)butane-2-sulfonamide]	0.42 nM
(1S,2S)-1-(5-chloro-2-pyrimidinyl)-N-(4-(1,3-dimethoxy-2-propanyl)-5-((2R,5R)-5-methyltetrahydro-2-furanyl)-4H-1,2,4-triazol-3-yl)-1-(2-propanyloxy)-2-propanesulfonamide or (1S,2S)-1-(5-chloro-2-pyrimidinyl)-N-(4-(1,3-dimethoxy-2-propanyl)-5-((2S,5S)-5-methyltetrahydro-2-furanyl)-4H-1,2,4-triazol-3-yl)-1-(2-propanyloxy)-2-propanesulfonamide [Example 354.0]	92 nM
(2S,3R)-3-(5-chloro-2-pyridinyl)-N-(4-(1,3-dimethoxy-2-propanyl)-5-((2R,5R)-5-methyltetrahydro-2-furanyl)-4H-1,2,4-triazol-3-yl)-2-butanesulfonamide or (2S,3R)-3-(5-chloro-2-pyridinyl)-N-(4-(1,3-dimethoxy-2-propanyl)-5-((2S,5S)-5-methyltetrahydro-2-furanyl)-4H-1,2,4-triazol-3-yl)-2-butanesulfonamide [Example 372.0]	240 nM
CO[C@H](c1ncc(Cl)cn1)[C@H](C)S(=O)(=O)Nc1nnc([C@H]2CCCCO2)n1C1(C)CC1 (single isomer, unassigned) [Example 113.0, (1R,2S)-1-(5-chloropyrimidin-2-yl)-1-methoxy-N-(4-(1-methylcyclopropyl)-5-((S)-tetrahydro-2H-pyran-2-yl)-4H-1,2,4-triazol-3-yl)propane-2-sulfonamide or (1R,2S)-1-(5-chloropyrimidin-2-yl)-1-methoxy-N-(4-(1-methylcyclopropyl)-5-((R)-tetrahydro-2H-pyran-2-yl)-4H-1,2,4-triazol-3-yl)propane-2-sulfonamide]	260 nM
CO[C@H](c1ncc(Cl)cn1)[C@H](C)S(=O)(=O)Nc1nnc([C@@H]2CCCO2)n1-c1ccccc1Cl [Example 243.0, (1R,2S)-N-(4-(2-chlorophenyl)-5-((2S)-tetrahydro-2-furanyl)-4H-1,2,4-triazol-3-yl)-1-(5-chloro-2-pyrimidinyl)-1-methoxy-2-propanesulfonamide]	5.6 nM
(1R,2S)-1-(5-chloropyrimidin-2-yl)-N-(5-((R)-2,3-dihydrobenzo[b][1,4]dioxin-2-yl)-4-(2,6-dimethoxyphenyl)-4H-1,2,4-triazol-3-yl)-1-methoxypropane-2-sulfonamide or (1R,2S)-1-(5-chloropyrimidin-2-yl)-N-(5-((S)-2,3-dihydrobenzo[b][1,4]dioxin-2-yl)-4-(2,6-dimethoxyphenyl)-4H-1,2,4-triazol-3-yl)-1-methoxypropane-2-sulfonamide [Example 258.0]	33 nM
COc1cccc(OC)c1-n1c(NS(=O)(=O)[C@@H](C)[C@@H](OC(C)C)c2ncc(Cl)cn2)nnc1[C@@H]1COCCO1 (single isomer, unassigned) [Example 283.0, (1S,2S)-1-(5-chloropyrimidin-2-yl)-N-(4-(2,6-dimethoxyphenyl)-5-((R)-1,4-dioxan-2-yl)-4H-1,2,4-triazol-3-yl)-1-isopropoxypropane-2-sulfonamide or (1S,2S)-1-(5-chloropyrimidin-2-yl)-N-(4-(2,6-dimethoxyphenyl)-5-((S)-1,4-dioxan-2-yl)-4H-1,2,4-triazol-3-yl)-1-isopropoxypropane-2-sulfonamide]	0.63 nM
COc1cccc(OC)c1-n1c(NS(=O)(=O)[C@@H](C)[C@H](C)c2ncc(C)cn2)nnc1[C@H]1CCO[C@@H]1C (single isomer, unassigned) [Example 122.0, (2S,3R)-N-(4-(2,6-dimethoxyphenyl)-5-((2S,3S)-2-methyltetrahydrofuran-3-yl)-4H-1,2,4-triazol-3-yl)-3-(5-methylpyrimidin-2-yl)butane-2-sulfonamide or (2S,3R)-N-(4-(2,6-dimethoxyphenyl)-5-((2R,3R)-2-methyltetrahydrofuran-3-yl)-4H-1,2,4-triazol-3-yl)-3-(5-methylpyrimidin-2-yl)butane-2-sulfonamide]	930 nM
COc1ncnc(OC)c1-n1c(NS(=O)(=O)[C@@H](C)[C@H](C)c2ncc(Cl)cn2)nnc1[C@@H]1CCCCO1 (single isomer, unassigned) [Example 192.0, (2S,3R)-3-(5-chloropyrimidin-2-yl)-N-(4-(4,6-dimethoxypyrimidin-5-yl)-5-((S)-tetrahydro-2H-pyran-2-yl)-4H-1,2,4-triazol-3-yl)butane-2-sulfonamide or (2S,3R)-3-(5-chloropyrimidin-2-yl)-N-(4-(4,6-dimethoxypyrimidin-5-yl)-5-((R)-tetrahydro-2H-pyran-2-yl)-4H-1,2,4-triazol-3-yl)butane-2-sulfonamide]	1 nM
(1R,2S)-N-(4-([1,1′-bi(cyclopropyl)]-1-yl)-5-((2S)-1,4-dioxan-2-yl)-4H-1,2,4-triazol-3-yl)-1-(5-chloro-2-pyrimidinyl)-1-methoxy-2-propanesulfonamide or (1R,2S)-N-(4-([1,1′-bi(cyclopropyl)]-1-yl)-5-((2R)-1,4-dioxan-2-yl)-4H-1,2,4-triazol-3-yl)-1-(5-chloro-2-pyrimidinyl)-1-methoxy-2-propanesulfonamide [Example 326.0]	1700 nM

From patent publication US10150760B2, “Compounds for use in preparing heterocyclic triazole agonists of the APJ receptor” (AMGEN INC., priority 2016, dated 2018)
